Test [1] addresses T1, Multidrug resistance-associated protein 1 (Homo sapiens, UniProt P33527). The experiment in a line: Inhibitory activity against MRP1 in HeLa-T5 cells. The class given is functional, cell-based.
Test [2] concerns the target T1, Multidrug resistance-associated protein 1. The experiment in a line: Inhibitory activity against MRP1-mediated LTC4 uptake into membrane vesicles from HeLa-T5 cells expressing MRP1. In kind it is functional, cell-based.

T1 sequence (P33527 whole entry): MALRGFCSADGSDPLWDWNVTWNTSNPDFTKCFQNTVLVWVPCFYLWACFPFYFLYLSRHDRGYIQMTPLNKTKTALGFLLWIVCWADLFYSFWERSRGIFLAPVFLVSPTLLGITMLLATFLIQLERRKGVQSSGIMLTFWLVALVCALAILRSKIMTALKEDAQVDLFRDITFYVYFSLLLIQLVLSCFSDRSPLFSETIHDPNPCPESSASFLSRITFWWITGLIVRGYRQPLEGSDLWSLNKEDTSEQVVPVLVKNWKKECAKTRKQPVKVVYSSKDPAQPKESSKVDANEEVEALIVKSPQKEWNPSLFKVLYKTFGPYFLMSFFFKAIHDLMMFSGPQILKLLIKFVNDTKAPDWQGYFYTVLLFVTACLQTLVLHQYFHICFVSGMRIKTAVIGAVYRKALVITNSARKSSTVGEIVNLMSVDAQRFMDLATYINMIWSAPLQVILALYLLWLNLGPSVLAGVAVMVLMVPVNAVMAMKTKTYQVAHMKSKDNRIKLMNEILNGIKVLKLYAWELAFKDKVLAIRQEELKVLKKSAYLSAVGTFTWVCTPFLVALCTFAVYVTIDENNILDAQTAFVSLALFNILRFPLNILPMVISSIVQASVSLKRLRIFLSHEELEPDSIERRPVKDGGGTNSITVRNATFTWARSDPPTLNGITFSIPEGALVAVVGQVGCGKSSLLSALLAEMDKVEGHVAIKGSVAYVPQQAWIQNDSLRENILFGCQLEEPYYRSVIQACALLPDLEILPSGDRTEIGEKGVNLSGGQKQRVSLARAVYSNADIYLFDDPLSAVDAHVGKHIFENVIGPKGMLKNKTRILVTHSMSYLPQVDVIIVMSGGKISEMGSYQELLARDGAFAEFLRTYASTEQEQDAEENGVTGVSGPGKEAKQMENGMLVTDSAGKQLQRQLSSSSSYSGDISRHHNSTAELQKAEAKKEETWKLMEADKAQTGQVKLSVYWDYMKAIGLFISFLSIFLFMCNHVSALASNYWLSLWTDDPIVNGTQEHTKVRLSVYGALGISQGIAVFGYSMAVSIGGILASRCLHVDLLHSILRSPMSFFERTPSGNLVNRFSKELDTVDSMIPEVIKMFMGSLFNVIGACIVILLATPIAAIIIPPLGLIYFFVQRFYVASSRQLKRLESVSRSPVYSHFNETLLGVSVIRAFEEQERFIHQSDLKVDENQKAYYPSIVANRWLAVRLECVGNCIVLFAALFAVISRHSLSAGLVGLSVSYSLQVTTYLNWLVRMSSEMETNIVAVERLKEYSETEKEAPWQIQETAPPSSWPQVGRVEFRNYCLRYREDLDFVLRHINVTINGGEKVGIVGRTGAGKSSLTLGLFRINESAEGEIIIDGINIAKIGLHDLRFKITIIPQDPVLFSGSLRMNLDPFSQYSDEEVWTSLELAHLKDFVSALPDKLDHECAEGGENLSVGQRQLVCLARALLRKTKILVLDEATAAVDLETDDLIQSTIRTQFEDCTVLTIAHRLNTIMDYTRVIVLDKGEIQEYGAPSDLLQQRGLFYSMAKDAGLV

Broadly, the EC50 is the concentration at which the effect is half-maximal. A high value points to a need for much substance. Usually IC50 stands for the concentration needed to halve the response being measured. A lower IC50 goes with higher potency. Molecule `COc1cc(C(=O)NC[C@@H]2CCC[C@H](n3c(=O)c4c(C)onc4c4c(Cl)cccc43)C2)cc(OC)c1OC` (racemic) gave an EC50 in test [1] of 250 nM. In test [2], this molecule showed an IC50 of 270 nM.

In test [1], `Cc1onc2c1c(=O)n([C@H]1CCC[C@H](CNC(=O)c3ccccc3)C1)c1cccc(Cl)c21` (racemic) showed a half-maximal effective concentration (EC50) of 640 nM. This molecule also showed an IC50 in test [2] of 1010 nM.

For `Cc1onc2c1c(=O)n([C@H]1CCC[C@@H](CNC(=O)c3ccccc3)C1)c1cccc(Cl)c21` (racemic), the concentration giving a half-maximal response (EC50) in test [1] is 180 nM. The molecule further showed a 50% inhibitory concentration (IC50) in test [2] of 38 nM.

As to `COc1cc(C(=O)NC[C@H]2CCC[C@H](n3c(=O)c4c(C)onc4c4c(Cl)cccc43)C2)cc(OC)c1OC` (racemic), in test [1], the EC50 stood at 420 nM. This lies in the sub-micromolar range.

Values taken from ChEMBL document CHEMBL1141238, “Cyclohexyl-linked tricyclic isoxazoles are potent and selective modulators of the multidrug resistance protein (MRP1)” (Bioorg Med Chem Lett, 2005).
